According to patent US8895585B2, “Nicotinamide derivative or salt thereof” (FUJIFILM Corporation, priority 2010, dated 2014):
Where two headings read alike, the source gives them in different places.

Tests used:
[1] = molecular target: T1, glutathione S-transferase (GST)-fused full-length human Syk protein (Homo sapiens, UniProt P43405); assay: Syk enzyme assay; type: biochemical
T1 construct: (GST)-fused full-length human Syk protein; GST (glutathione S-transferase); purchased Carna Biosciences
Procedure, shortened: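 GST-tagged full-length human Syk (baculovirus) preincubated with compound 15 min at room temperature (pH 7.0, 10 mM MgCl2), then reacted 40 min with 0.4 μM biotinylated peptide substrate and 27 μM ATP (final). Phosphorylation read by HTRF (615/665 nm) after EDTA stop; IC50 reported.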

[2] = test system: THP-1 cells; assay: TNFα generation assay; type: cell-based, human; settings: Homo sapiens
Procedure, shortened: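 Secreted TNFα in supernatant quantified by ELISA or AlphaLISA after 7 h culture on human IgG-coated wells (10 μg/ml coating). Cells were IFN-γ-differentiated THP-1 (10 ng/ml, 2 days), exposed to compound for 30 min at room temperature before plating.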

[3] = Syk enzyme assay, Test Example 1, read-out: IC50 of Syk-inhibitory activity
[4] = THP-1, THP-1 cells, Table 22, read-out: IC50 in TNFα generation assay
[5] = read-out: Syk-inhibitory activity (IC50)
[6] = THP-1, 7 h, IFN-γ-differentiated THP-1 cells on human IgG-coated plate, cultured 7 hours, read-out: TNFα generation inhibitory activity (IC50)

Structure (SMILES)	IC50 [1, 3] [nM]	IC50 [2, 4] [nM]	IC50 [1, 5] [nM]	IC50 [2, 6] [nM]
CCc1nn(CC)c2ccc(Nc3nc(N[C@H](C4CC4)[C@H](C)N)c(F)cc3C(N)=O)cc12 [Example 006-579, 6-(((1R,2S)-2-amino-1-cyclopropylpropyl)amino)-2-((1,3-diethyl-1H-indazol-5-yl)amino)-5-fluoronicotinamide]	< 10	65 to 130	–	–
CC(C)c1nn(C)c2ccc(Nc3nc(N[C@H](C4CC4)[C@H](C)N)c(F)cc3C(N)=O)cc12 [Example 006-580, 6-(((1R,2S)-2-amino-1-cyclopropylpropyl)amino)-5-fluoro-2-((3-isopropyl-1-methyl-1H-indazol-5-yl)amino)nicotinamide]	< 10	130 to 200	–	–
CCn1ncc2ccc(Nc3nc(N[C@H](C4CC4)[C@H](C)N)c(F)cc3C(N)=O)cc21 [Example 006-581, 6-(((1R,2S)-2-amino-1-cyclopropylpropyl)amino)-2-((1-ethyl-1H-indazol-6-yl)amino)-5-fluoronicotinamide]	< 10	< 65	–	–
CCn1nc(C)c2cc(Nc3nc(N[C@H](C4CC4)[C@H](C)N)c(F)cc3C(N)=O)ccc21 [Example 006-583, 6-(((1R,2S)-2-amino-1-cyclopropylpropyl)amino)-2-((1-ethyl-3-methyl-1H-indazol-5-yl)amino)-5-fluoronicotinamide]	< 10	< 65	–	–
Cc1nn(CC(F)F)c2ccc(Nc3nc(N[C@H](C4CC4)[C@H](C)N)c(F)cc3C(N)=O)cc12 [Example 006-584, 6-(((1R,2S)-2-amino-1-cyclopropylpropyl)amino)-2-((1-(2,2-difluoroethyl)-3-methyl-1H-indazol-5-yl)amino)-5-fluoronicotinamide]	< 10	65 to 130	–	–
COc1nn(C)c2ccc(Nc3nc(N[C@@H]4CCCC[C@@H]4N)c(F)cc3C(N)=O)cc12 [Example 006-585, 6-(((1R,2S)-2-aminocyclohexyl)amino)-5-fluoro-2-((3-methoxy-1-methyl-1H-indazol-5-yl)amino)nicotinamide]	< 10	< 65	–	–
COc1nn(C)c2ccc(Nc3nc(N[C@H](CC4CC4)[C@H](C)N)c(F)cc3C(N)=O)cc12 [Example 006-586, 6-(((2R,3S)-3-amino-1-cyclopropylbutan-2-yl)amino)-5-fluoro-2-((3-methoxy-1-methyl-1H-indazol-5-yl)amino)nicotinamide]	< 10	65 to 130	–	–
COc1nn(C)c2ccc(Nc3nc(N[C@H](CC(C)C)[C@H](C)N)c(F)cc3C(N)=O)cc12 [Example 006-587, 6-(((2S,3R)-2-amino-5-methylhexan-3-yl)amino)-5-fluoro-2-((3-methoxy-1-methyl-1H-indazol-5-yl)amino)nicotinamide]	< 10	65 to 130	–	–
CC[C@@H](Nc1nc(Nc2ccc3c(c2)c(OC)nn3C)c(C(N)=O)cc1F)[C@H](C)N [Example 006-588, 6-(((2S,3R)-2-aminopentan-3-yl)amino)-5-fluoro-2-((3-methoxy-1-methyl-1H-indazol-5-yl)amino)nicotinamide]	< 10	< 65	–	–
COc1nn(C)c2ccc(Nc3nc(N[C@H](C4CC4)[C@H](C)N)c(F)cc3C(N)=O)cc12 [Example 006-589, 6-(((1R,2S)-2-amino-1-cyclopropylpropyl)amino)-5-fluoro-2-((3-methoxy-1-methyl-1H-indazol-5-yl)amino)nicotinamide]	< 10	65 to 130	–	–
CCOc1nn(CC)c2ccc(Nc3nc(N[C@@H]4CCCC[C@@H]4N)c(F)cc3C(N)=O)cc12 [Example 006-590, 6-(((1R,2S)-2-aminocyclohexyl)amino)-2-((3-ethoxy-1-ethyl-1H-indazol-5-yl)amino)-5-fluoronicotinamide]	< 10	130 to 200	–	–
CCOc1nn(CC)c2ccc(Nc3nc(N[C@H](CC4CC4)[C@H](C)N)c(F)cc3C(N)=O)cc12 [Example 006-591, 6-(((2R,3S)-3-amino-1-cyclopropylbutan-2-yl)amino)-2-((3-ethoxy-1-ethyl-1H-indazol-5-yl)amino)-5-fluoronicotinamide]	< 10	130 to 200	–	–
CCOc1nn(CC)c2ccc(Nc3nc(N[C@H](CC(C)C)[C@H](C)N)c(F)cc3C(N)=O)cc12 [Example 006-592, 6-(((2S,3R)-2-amino-5-methylhexan-3-yl)amino)-2-((3-ethoxy-1-ethyl-1H-indazol-5-yl)amino)-5-fluoronicotinamide]	< 10	130 to 200	–	–
CCOc1nn(CC)c2ccc(Nc3nc(N[C@H](CC)[C@H](C)N)c(F)cc3C(N)=O)cc12 [Example 006-593, 6-(((2S,3R)-2-aminopentan-3-yl)amino)-2-((3-ethoxy-1-ethyl-1H-indazol-5-yl)amino)-5-fluoronicotinamide]	< 10	65 to 130	–	–
CC[C@@H](Nc1nc(Nc2ccc3c(c2)c(-n2cccn2)nn3C)c(C(N)=O)cc1F)[C@H](C)N [Example 006-596, 6-(((2S,3R)-2-aminopentan-3-yl)amino)-5-fluoro-2-((1-methyl-3-(1H-pyrazol-1-yl)-1H-indazol-5-yl)amino)nicotinamide]	< 10	65 to 130	–	–
Cc1cc(Nc2nc(N[C@H](C3CCC3)[C@H](C)N)c(F)cc2C(N)=O)cnc1C [Example 006-597, 6-(((1R,2S)-2-amino-1-cyclobutylpropyl)amino)-2-((5,6-dimethylpyridin-3-yl)amino)-5-fluoronicotinamide]	< 10	65 to 130	–	–
Cc1ncc(Nc2nc(N[C@H](C3CCC3)[C@H](C)N)c(F)cc2C(N)=O)cc1-n1nccn1 [Example 006-598, 6-(((1R,2S)-2-amino-1-cyclobutylpropyl)amino)-5-fluoro-2-((6-methyl-5-(2H-1,2,3-triazol-2-yl)pyridin-3-yl)amino)nicotinamide]	< 10	130 to 200	–	–
COc1cc(Nc2nc(NCCN)c(F)cc2C(N)=O)cc(OC)c1 [Example 008-001]	10 to 50	65 to 130	–	–

Structure (SMILES)	IC50 [1, 3] [nM]	IC50 [2, 4] [nM]	IC50 [1, 5] [nM]	IC50 [2, 6] [nM]
NC(=O)c1cc(F)c(NC2CCCCC2N)nc1Nc1cncc2ccccc12 (stereo not shown) [Example 010-001]	< 10	< 65	–	–
NC(=O)c1cc(F)c(NC2CCCCC2N)nc1Nc1cnc2ncccc2c1 (stereo not shown) [Example 010-002]	10 to 50	130 to 200	–	–
CC(C)C[C@@H](Nc1nc(Nc2ccc3ncccc3c2)c(C(N)=O)cc1F)C(N)=O [Example 11, 6-(((2R)-1-amino-4-methyl-1-oxopentan-2-yl)amino)-5-fluoro-2-(quinolin-6-ylamino)nicotinamide]	–	–	≤ 1000	≤ 200
CC(C)C[C@@H](Nc1nc(Nc2ccc3ncsc3c2)c(C(N)=O)cc1F)C(N)=O [Example 012-005]	10 to 50	130 to 200	–	–
NC(=O)c1cc(F)c(N[C@@H](C(N)=O)c2ccccc2)nc1Nc1ccc2ncccc2c1 [Example 12-8, 6-(((1R)-2-amino-2-oxo-1-phenylethyl)amino)-5-fluoro-2-(quinolin-6-ylamino)nicotinamide]	–	–	≤ 1000	≤ 200
CC(C)C[C@@H](Nc1nc(Nc2ccc3ncccc3c2)c(C(N)=O)cc1F)C(N)=O [Example 012-009]	< 10	65 to 130	–	–
NC(=O)c1cc(F)c(N[C@@H](C(N)=O)c2ccccc2)nc1Nc1cnc2ccccc2c1 [Example 012-013]	10 to 50	130 to 200	–	–
CC[C@@H](Nc1nc(Nc2ccc3ncccc3c2)c(C(N)=O)cc1F)C(N)=O [Example 012-031]	10 to 50	65 to 130	–	–
C[C@@H](Nc1nc(Nc2ccc3ncccc3c2)c(C(N)=O)cc1F)C(N)=O [Example 012-036, (R)-6-((1-amino-1-oxopropan-2-yl)amino)-5-fluoro-2-((quinolin-6-yl)amino)nicotinamide]	10 to 50	65 to 130	–	–
C[C@H](N)CNc1nc(Nc2ccc3ncccc3c2)c(C(N)=O)cc1F [Example 13, 6-((2S)-2-aminopropylamino)-5-fluoro-2-(quinolin-6-ylamino)nicotinamide]	–	–	≤ 1000	≤ 200
CC(C)C(N)CNc1nc(Nc2ccc3ncccc3c2)c(C(N)=O)cc1F (stereo not shown) [Example 014-002]	< 10	< 65	–	–
NC(=O)c1cc(F)c(NCC(N)c2ccccc2)nc1Nc1ccc2ncccc2c1 (stereo not shown) [Example 014-005]	< 10	< 65	–	–
CC(N)CNc1nc(Nc2ccc3ncccc3c2)c(C(N)=O)cc1F (stereo not shown) [Example 014-009]	< 10	< 65	–	–
NC(=O)c1cc(F)c(NCC(N)C2CC2)nc1Nc1ccc2ncccc2c1 (stereo not shown) [Example 014-013, 6-((2-amino-2-cyclopropylethyl)amino)-5-fluoro-2-((quinolin-6-yl)amino)nicotinamide]	10 to 50	130 to 200	–	–
NC(=O)c1cc(F)c(NCC2(N)CC2)nc1Nc1ccc2ncccc2c1 [Example 014-014, 6-((1-aminocyclopropylmethyl)amino)-5-fluoro-2-((quinolin-6-yl)amino)nicotinamide]	< 10	130 to 200	–	–
NC(=O)c1cc(F)c(NCC(N)C(F)(F)F)nc1Nc1ccc2ncccc2c1 (stereo not shown) [Example 014-016, 6-((2-amino-3,3,3-trifluoropropyl)amino)-5-fluoro-2-((quinolin-6-yl)amino)nicotinamide]	< 10	65 to 130	–	–
NC(=O)c1cc(F)c(NC[C@@H](N)c2ccccn2)nc1Nc1ccc2ncccc2c1 [Example 014-017, (R)-6-((2-amino-2-(pyridin-2-yl)ethyl)amino)-5-fluoro-2-((quinolin-6-yl)amino)nicotinamide]	< 10	130 to 200	–	–
